# Values of other authors, collected in article PMC9516332 (Frontiers in Oncology, 2022).
# Read-outs that look alike come from different tables or passages of the source.
# Key:
# [1] = biological target: T1, panel of 255 wild-type kinases (Homo sapiens, UniProt O00418); conditions: kinase EEF2K, 1 µmol/L single concentration, cited from earlier work
# T1 sequence (O00418 1-725): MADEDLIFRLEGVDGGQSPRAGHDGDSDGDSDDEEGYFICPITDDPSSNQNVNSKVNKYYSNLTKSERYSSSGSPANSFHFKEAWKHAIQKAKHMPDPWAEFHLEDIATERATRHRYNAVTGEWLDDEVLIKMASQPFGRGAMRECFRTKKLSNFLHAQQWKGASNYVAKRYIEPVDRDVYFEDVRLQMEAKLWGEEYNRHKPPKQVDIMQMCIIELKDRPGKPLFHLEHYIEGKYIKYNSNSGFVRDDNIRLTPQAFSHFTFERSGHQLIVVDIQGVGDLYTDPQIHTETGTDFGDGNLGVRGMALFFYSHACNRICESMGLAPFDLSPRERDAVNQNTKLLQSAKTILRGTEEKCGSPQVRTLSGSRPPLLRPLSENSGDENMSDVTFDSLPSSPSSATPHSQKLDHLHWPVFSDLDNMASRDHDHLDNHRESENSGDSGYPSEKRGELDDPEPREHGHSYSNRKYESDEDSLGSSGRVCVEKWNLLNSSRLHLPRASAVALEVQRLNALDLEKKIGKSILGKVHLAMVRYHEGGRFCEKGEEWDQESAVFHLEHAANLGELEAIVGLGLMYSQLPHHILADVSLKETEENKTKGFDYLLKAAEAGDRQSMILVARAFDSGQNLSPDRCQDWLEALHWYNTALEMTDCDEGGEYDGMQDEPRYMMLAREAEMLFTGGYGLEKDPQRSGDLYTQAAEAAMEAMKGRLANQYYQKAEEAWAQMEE
# [2] = biological target: T2, panel of 255 wild-type kinases (Homo sapiens, UniProt O43781); conditions: kinase DYRK3, 1 µmol/L single concentration, cited from earlier work
# T2 sequence (O43781 1-588): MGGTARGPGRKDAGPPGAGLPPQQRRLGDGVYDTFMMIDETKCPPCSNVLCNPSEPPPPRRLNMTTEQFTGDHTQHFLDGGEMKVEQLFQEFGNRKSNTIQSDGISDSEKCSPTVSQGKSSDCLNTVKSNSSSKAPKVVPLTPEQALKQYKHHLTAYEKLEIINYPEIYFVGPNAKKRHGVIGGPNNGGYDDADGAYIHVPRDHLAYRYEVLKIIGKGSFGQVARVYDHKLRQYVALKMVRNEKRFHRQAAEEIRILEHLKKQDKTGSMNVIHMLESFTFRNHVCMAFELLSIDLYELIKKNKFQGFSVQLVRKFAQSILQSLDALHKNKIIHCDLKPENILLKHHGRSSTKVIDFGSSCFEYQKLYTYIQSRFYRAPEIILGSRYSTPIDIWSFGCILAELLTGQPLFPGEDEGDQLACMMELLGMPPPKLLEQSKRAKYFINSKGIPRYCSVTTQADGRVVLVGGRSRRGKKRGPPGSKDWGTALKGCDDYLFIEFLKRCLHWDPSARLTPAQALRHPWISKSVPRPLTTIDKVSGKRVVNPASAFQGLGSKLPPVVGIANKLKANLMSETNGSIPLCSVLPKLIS
# [3] = biological target: panel of 255 wild-type kinases (Homo sapiens, UniProt O75116); conditions: kinase ROCK2, 1 µmol/L single concentration, cited from earlier work
# [4] = biological target: panel of 255 wild-type kinases (Homo sapiens, UniProt O94804); conditions: kinase LOK, 1 µmol/L single concentration, cited from earlier work
# [5] = biological target: panel of 255 wild-type kinases (Homo sapiens, UniProt P17612); conditions: kinase PKACα, 1 µmol/L single concentration, cited from earlier work
# [6] = biological target: panel of 255 wild-type kinases (Homo sapiens, UniProt Q00526); conditions: CDK3/CycE1 kinase assay, 1 µmol/L single concentration, cited from earlier work
# [7] = biological target: T3, panel of 255 wild-type kinases (Homo sapiens, UniProt Q12866); conditions: MER, 1 µmol/L single concentration, cited from earlier work
# T3 sequence (Q12866 21-999): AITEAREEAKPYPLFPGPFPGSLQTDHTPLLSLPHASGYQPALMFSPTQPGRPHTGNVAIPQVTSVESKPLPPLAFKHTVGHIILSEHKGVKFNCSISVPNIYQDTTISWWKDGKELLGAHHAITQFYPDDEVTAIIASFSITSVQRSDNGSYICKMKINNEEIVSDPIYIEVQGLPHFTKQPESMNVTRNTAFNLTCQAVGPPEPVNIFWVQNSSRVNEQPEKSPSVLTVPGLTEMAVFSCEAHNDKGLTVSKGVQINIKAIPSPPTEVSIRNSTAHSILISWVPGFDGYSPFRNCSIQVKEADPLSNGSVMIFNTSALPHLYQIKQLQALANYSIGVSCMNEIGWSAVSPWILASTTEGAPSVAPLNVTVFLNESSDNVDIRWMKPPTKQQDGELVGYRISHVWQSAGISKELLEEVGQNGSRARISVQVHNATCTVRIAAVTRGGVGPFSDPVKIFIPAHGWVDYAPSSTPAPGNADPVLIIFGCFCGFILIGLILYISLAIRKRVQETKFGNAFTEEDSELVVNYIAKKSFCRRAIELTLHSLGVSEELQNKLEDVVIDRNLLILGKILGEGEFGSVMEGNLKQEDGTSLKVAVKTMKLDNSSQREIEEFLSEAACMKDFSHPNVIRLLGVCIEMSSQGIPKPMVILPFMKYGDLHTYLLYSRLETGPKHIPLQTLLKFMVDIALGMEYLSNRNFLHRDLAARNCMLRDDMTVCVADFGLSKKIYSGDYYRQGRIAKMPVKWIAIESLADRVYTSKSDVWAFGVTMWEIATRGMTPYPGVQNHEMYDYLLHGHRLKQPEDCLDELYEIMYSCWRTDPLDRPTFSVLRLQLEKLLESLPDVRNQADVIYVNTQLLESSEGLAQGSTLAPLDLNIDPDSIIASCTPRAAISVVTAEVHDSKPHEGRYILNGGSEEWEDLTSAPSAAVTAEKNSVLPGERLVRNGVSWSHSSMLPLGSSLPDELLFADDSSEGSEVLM
# [8] = ref DOI: 10.1158/1535-7163.MCT-18-0877
# [9] = ref DOI: 10.1371/journal.pone.0092146
structure (smiles),measurement,setting,value
C=CC(=O)N1CCC[C@@H](n2nc(-c3ccc(Oc4ccccc4)cc3)c3c(N)ncnc32)C1 [ibrutinib],"%-inhibition at 1 µmol/L, EEF2K",[1]; [8],1.15%
same,"%-inhibition at 1 µmol/L, DYRK3",[2]; [8],-4%
same,"%-inhibition at 1 µmol/L, ROCK2",[3]; [8],3.74%
same,"%-inhibition at 1 µmol/L, LOK",[4]; [8],24%
same,"%-inhibition at 1 µmol/L, PKACα",[5]; [8],-11%
same,%-inhibition CDK3/CycE1,[6]; [8],0.486%
same,"%-inhibition, MER",[7]; [8],0.565%
CC(=O)Nc1cccc(-n2c(=O)n(C3CC3)c(=O)c3c(Nc4ccc(I)cc4F)n(C)c(=O)c(C)c32)c1 [trametinib],"%-inhibition at 1 µmol/L, EEF2K",[1]; [9],-3.43%
same,"%-inhibition at 1 µmol/L, DYRK3",[2]; [9],-10%
same,"%-inhibition at 1 µmol/L, ROCK2",[3]; [9],3%
same,"%-inhibition at 1 µmol/L, LOK",[4]; [9],12%
same,"%-inhibition at 1 µmol/L, PKACα",[5]; [9],8.52%
same,%-inhibition CDK3/CycE1,[6]; [9],0.16%
same,"%-inhibition, MER",[7]; [9],-6.62%
Cc1cc(Nc2ncc(Cl)c(Nc3ccccc3S(=O)(=O)C(C)C)n2)c(OC(C)C)cc1C1CCNCC1 [ceritinib],"%-inhibition at 1 µmol/L, EEF2K",[1]; [8],11%
same,"%-inhibition at 1 µmol/L, DYRK3",[2]; [8],-2.12%
same,"%-inhibition at 1 µmol/L, LOK",[4]; [8],75%
same,"%-inhibition at 1 µmol/L, PKACα",[5]; [8],-8%
same,%-inhibition CDK3/CycE1,[6]; [8],-3.17%
same,"%-inhibition, MER",[7]; [8],51%
C[C@@H](Oc1cc(-c2cnn(C3CCNCC3)c2)cnc1N)c1c(Cl)ccc(F)c1Cl [crizotinib],"%-inhibition at 1 µmol/L, EEF2K",[1]; [9],-4.6%
same,"%-inhibition at 1 µmol/L, DYRK3",[2]; [9],14%
same,"%-inhibition at 1 µmol/L, ROCK2",[3]; [9],4.25%
same,"%-inhibition at 1 µmol/L, LOK",[4]; [9],98%
same,"%-inhibition at 1 µmol/L, PKACα",[5]; [9],-6%
same,%-inhibition CDK3/CycE1,[6]; [9],-5.68%
C=CC(=O)Nc1cc(Nc2nccc(-c3cn(C)c4ccccc34)n2)c(OC)cc1N(C)CCN(C)C [osimertinib],"%-inhibition at 1 µmol/L, EEF2K",[1]; [8],-0.355%
same,"%-inhibition at 1 µmol/L, DYRK3",[2]; [8],21%
same,"%-inhibition at 1 µmol/L, ROCK2",[3]; [8],6.54%
same,"%-inhibition at 1 µmol/L, LOK",[4]; [8],42%
same,"%-inhibition at 1 µmol/L, PKACα",[5]; [8],-11%
same,%-inhibition CDK3/CycE1,[6]; [8],22%
same,"%-inhibition, MER",[7]; [8],10%
CCCS(=O)(=O)Nc1ccc(F)c(C(=O)c2c[nH]c3ncc(-c4ccc(Cl)cc4)cc23)c1F [vemurafenib],"%-inhibition at 1 µmol/L, EEF2K",[1]; [9],-5%
same,"%-inhibition at 1 µmol/L, DYRK3",[2]; [9],5%
same,"%-inhibition at 1 µmol/L, ROCK2",[3]; [9],-0.177%
same,"%-inhibition at 1 µmol/L, LOK",[4]; [9],-1%
same,"%-inhibition at 1 µmol/L, PKACα",[5]; [9],-4%
same,%-inhibition CDK3/CycE1,[6]; [9],-4.34%
same,"%-inhibition, MER",[7]; [9],6%
O=C(c1ccc(F)c(F)c1Nc1ccc(I)cc1F)N1CC(O)([C@@H]2CCCCN2)C1 [cobimetinib],"%-inhibition at 1 µmol/L, EEF2K",[1]; [8],-0.685%
same,"%-inhibition at 1 µmol/L, DYRK3",[2]; [8],-3.62%
same,"%-inhibition at 1 µmol/L, ROCK2",[3]; [8],3.55%
same,"%-inhibition at 1 µmol/L, LOK",[4]; [8],10%
same,"%-inhibition at 1 µmol/L, PKACα",[5]; [8],-10%
same,%-inhibition CDK3/CycE1,[6]; [8],2.16%
same,"%-inhibition, MER",[7]; [8],1.18%
CC(C)(C)c1nc(-c2cccc(NS(=O)(=O)c3c(F)cccc3F)c2F)c(-c2ccnc(N)n2)s1 [dabrafenib],"%-inhibition at 1 µmol/L, DYRK3",[2]; [9],-5.68%
same,"%-inhibition at 1 µmol/L, ROCK2",[3]; [9],14%
same,"%-inhibition, MER",[7]; [9],-0.876%
CO[C@@H]1[C@H](N(C)C(=O)c2ccccc2)C[C@H]2O[C@]1(C)n1c3ccccc3c3c4c(c5c6ccccc6n2c5c31)C(=O)NC4 [midostaurin],"%-inhibition at 1 µmol/L, EEF2K",[1]; [8],-9%
same,"%-inhibition at 1 µmol/L, ROCK2",[3]; [8],38%
same,"%-inhibition at 1 µmol/L, LOK",[4]; [8],98%
same,"%-inhibition at 1 µmol/L, PKACα",[5]; [8],93%
same,%-inhibition CDK3/CycE1,[6]; [8],11%
same,"%-inhibition, MER",[7]; [8],85%
CC#CC(=O)N1CCC[C@H]1c1nc(-c2ccc(C(=O)Nc3ccccn3)cc2)c2c(N)nccn12 [acalabrutinib],"%-inhibition at 1 µmol/L, EEF2K",[1]; [8],-12%
same,"%-inhibition at 1 µmol/L, DYRK3",[2]; [8],0.353%
same,"%-inhibition at 1 µmol/L, ROCK2",[3]; [8],-2.29%
same,"%-inhibition at 1 µmol/L, LOK",[4]; [8],3.37%
same,"%-inhibition at 1 µmol/L, PKACα",[5]; [8],-5%
same,%-inhibition CDK3/CycE1,[6]; [8],-6%
same,"%-inhibition, MER",[7]; [8],-3.37%
CCc1cc2c(cc1N1CCC(N3CCOCC3)CC1)C(C)(C)c1[nH]c3cc(C#N)ccc3c1C2=O [alectinib],"%-inhibition at 1 µmol/L, EEF2K",[1]; [8],-0.237%
same,"%-inhibition at 1 µmol/L, DYRK3",[2]; [8],8.44%
same,"%-inhibition at 1 µmol/L, ROCK2",[3]; [8],4.54%
same,"%-inhibition at 1 µmol/L, PKACα",[5]; [8],5%
same,%-inhibition CDK3/CycE1,[6]; [8],-2.74%
same,"%-inhibition, MER",[7]; [8],56%
